Assay results taken from patent US8445492B2, “Method for inhibiting growth of cancer cells and cell telomere and diseases of cell proliferation by using heteroannelated anthraquinone derivative compounds” (National Defense Medical Center, priority 2008, dated 2013).

Columns and labels:
Format in all cases: cell-based
MALME-3M = assay: NCI DTP in-vitro dose response, Melanoma
LOX IMVI = assay: NCI DTP in-vitro dose response, Melanoma
UACC-257 = assay: NCI DTP in-vitro dose response, Melanoma
SK-MEL-5 = assay: NCI DTP in-vitro dose response, Melanoma
UACC-62 = assay: NCI DTP in-vitro dose response, Melanoma
SK-MEL-28 = assay: NCI DTP in-vitro dose response, Melanoma
M14 = assay: NCI DTP in-vitro dose response, Melanoma
UO-31 = assay: NCI DTP in-vitro dose response, Renal Cancer
786-0 = assay: NCI DTP in-vitro dose response, Renal Cancer
ACHN = assay: NCI DTP in-vitro dose response, Renal Cancer
A498 = assay: NCI DTP in-vitro dose response, Renal Cancer
CAKI-1 = assay: NCI DTP in-vitro dose response, Renal Cancer
SN12C = assay: NCI DTP in-vitro dose response, Renal Cancer
TK-10 = assay: NCI DTP in-vitro dose response, Renal Cancer

In the case of `CCc1nc2ccc3c(c2[nH]1)C(=O)c1ccccc1C3=O` [TABLE 4-5], the CC50 (MALME-3M) is reported as over 100 µM, the TGI (MALME-3M) is reported as 8.69E−5 and the “Percent Growth” value (MALME-3M; Log10 Concentration −4.0) is reported as −2%. The “Percent Growth” value (MALME-3M; Log10 Concentration −5.0) was 26%, the “Percent Growth” value (MALME-3M; Log10 Concentration −6.0) was 83% and the “Percent Growth” value (MALME-3M; Log10 Concentration −7.0) was 84%. The “Percent Growth” value (MALME-3M; Log10 Concentration −8.0) was 87%, the GI50 (MALME-3M; read-out: GI50) was 3.75 µM and the CC50 (LOX IMVI) was over 100 µM. The TGI (LOX IMVI) was over 1.00E−4, the “Percent Growth” value (LOX IMVI; Log10 Concentration −4.0) was 10% and the “Percent Growth” value (LOX IMVI; Log10 Concentration −5.0) was 33%. The “Percent Growth” value (LOX IMVI; Log10 Concentration −6.0) was 83%, the “Percent Growth” value (LOX IMVI; Log10 Concentration −7.0) was 91% and the “Percent Growth” value (LOX IMVI; Log10 Concentration −8.0) was 101%. It also gave a GI50 (LOX IMVI; read-out: GI50) of 4.61 µM, a CC50 (UACC-257) of over 100 µM and a TGI (UACC-257) of over 1.00E−4. The “Percent Growth” value (UACC-257; Log10 Concentration −4.0) was 18%, the “Percent Growth” value (UACC-257; Log10 Concentration −5.0) was 66% and the “Percent Growth” value (UACC-257; Log10 Concentration −6.0) was 96%. For the same molecule, the “Percent Growth” value (UACC-257; Log10 Concentration −7.0) was 84%, the “Percent Growth” value (UACC-257; Log10 Concentration −8.0) was 84% and the GI50 (UACC-257; read-out: GI50) was 21.6 µM. For the same molecule, the CC50 (SK-MEL-5) was over 100 µM, the TGI (SK-MEL-5) was 8.36E−6 and the “Percent Growth” value (SK-MEL-5; Log10 Concentration −4.0) was −19%. For the same molecule, the “Percent Growth” value (SK-MEL-5; Log10 Concentration −5.0) was −5%, the “Percent Growth” value (SK-MEL-5; Log10 Concentration −6.0) was 59% and the “Percent Growth” value (SK-MEL-5; Log10 Concentration −7.0) was 42%. For the same molecule, the “Percent Growth” value (SK-MEL-5; Log10 Concentration −8.0) was 44%, the CC50 (UACC-62) was over 100 µM and the TGI (UACC-62) was over 1.00E−4. The “Percent Growth” value (UACC-62; Log10 Concentration −4.0) was 26%, the “Percent Growth” value (UACC-62; Log10 Concentration −5.0) was 41% and the “Percent Growth” value (UACC-62; Log10 Concentration −6.0) was 85%. For the same molecule, the “Percent Growth” value (UACC-62; Log10 Concentration −7.0) was 92%, the “Percent Growth” value (UACC-62; Log10 Concentration −8.0) was 83% and the GI50 (UACC-62; read-out: GI50) was 6.18 µM. For the same molecule, the CC50 (SK-MEL-28) was over 100 µM, the TGI (SK-MEL-28) was 6.36E−5 and the “Percent Growth” value (SK-MEL-28; Log10 Concentration −4.0) was −12%. For the same molecule, the “Percent Growth” value (SK-MEL-28; Log10 Concentration −5.0) was 48%, the “Percent Growth” value (SK-MEL-28; Log10 Concentration −6.0) was 79% and the “Percent Growth” value (SK-MEL-28; Log10 Concentration −7.0) was 84%. The “Percent Growth” value (SK-MEL-28; Log10 Concentration −8.0) was 89%, the GI50 (SK-MEL-28; read-out: GI50) was 8.58 µM and the CC50 (M14) was over 100 µM. For the same molecule, the TGI (M14) was over 1.00E−4, the “Percent Growth” value (M14; Log10 Concentration −4.0) was 25% and the “Percent Growth” value (M14; Log10 Concentration −5.0) was 50%. The “Percent Growth” value (M14; Log10 Concentration −6.0) was 78%, the “Percent Growth” value (M14; Log10 Concentration −7.0) was 95% and the “Percent Growth” value (M14; Log10 Concentration −8.0) was 88%. For the same molecule, the GI50 (M14; read-out: GI50) was 10.2 µM.
For `CCc1nc2ccc3c(c2[nH]1)C(=O)c1ccccc1C3=O` [TABLE 4-7], the CC50 (UO-31) was over 100 µM, the TGI (UO-31) was over 1.00E−4 and the “Percent Growth” value (UO-31; Log10 Concentration −5.0) was 15%. The “Percent Growth” value (UO-31; Log10 Concentration −6.0) was 67%, the “Percent Growth” value (UO-31; Log10 Concentration −7.0) was 83% and the “Percent Growth” value (UO-31; Log10 Concentration −8.0) was 88%. It also gave a GI50 (UO-31; read-out: GI50) of 2120 nM, a CC50 (786-0) of over 100 µM and a TGI (786-0) of over 1.00E−4. For the same molecule, the “Percent Growth” value (786-0; Log10 Concentration −4.0) was 38%, the “Percent Growth” value (786-0; Log10 Concentration −5.0) was 68% and the “Percent Growth” value (786-0; Log10 Concentration −6.0) was 95%. For the same molecule, the “Percent Growth” value (786-0; Log10 Concentration −7.0) was 102%, the “Percent Growth” value (786-0; Log10 Concentration −8.0) was 104% and the GI50 (786-0; read-out: GI50) was 40.2 µM. For the same molecule, the CC50 (ACHN) was over 100 µM, the TGI (ACHN) was 5.46E−5 and the “Percent Growth” value (ACHN; Log10 Concentration −4.0) was −5%. For the same molecule, the “Percent Growth” value (ACHN; Log10 Concentration −5.0) was 14%, the “Percent Growth” value (ACHN; Log10 Concentration −6.0) was 62% and the “Percent Growth” value (ACHN; Log10 Concentration −7.0) was 85%. For the same molecule, the “Percent Growth” value (ACHN; Log10 Concentration −8.0) was 94%, the GI50 (ACHN; read-out: GI50) was 1770 nM and the CC50 (A498) was over 100 µM. The TGI (A498) was 4.27E−5, the “Percent Growth” value (A498; Log10 Concentration −4.0) was −20% and the “Percent Growth” value (A498; Log10 Concentration −5.0) was 34%. For the same molecule, the “Percent Growth” value (A498; Log10 Concentration −6.0) was 74%, the “Percent Growth” value (A498; Log10 Concentration −7.0) was 97% and the “Percent Growth” value (A498; Log10 Concentration −8.0) was 94%. For the same molecule, the GI50 (A498; read-out: GI50) was 3.89 µM, the CC50 (CAKI-1) was over 100 µM and the TGI (CAKI-1) was over 1.00E−4. For the same molecule, the “Percent Growth” value (CAKI-1; Log10 Concentration −4.0) was 9%, the “Percent Growth” value (CAKI-1; Log10 Concentration −5.0) was 20% and the “Percent Growth” value (CAKI-1; Log10 Concentration −6.0) was 76%. The “Percent Growth” value (CAKI-1; Log10 Concentration −7.0) was 91%, the “Percent Growth” value (CAKI-1; Log10 Concentration −8.0) was 97% and the GI50 (CAKI-1; read-out: GI50) was 2900 nM. For the same molecule, the CC50 (SN12C) was over 100 µM, the TGI (SN12C) was over 1.00E−4 and the “Percent Growth” value (SN12C; Log10 Concentration −4.0) was 18%. For the same molecule, the “Percent Growth” value (SN12C; Log10 Concentration −5.0) was 46%, the “Percent Growth” value (SN12C; Log10 Concentration −6.0) was 74% and the “Percent Growth” value (SN12C; Log10 Concentration −7.0) was 80%. For the same molecule, the “Percent Growth” value (SN12C; Log10 Concentration −8.0) was 74%, the GI50 (SN12C; read-out: GI50) was 7.05 µM and the CC50 (TK-10) was over 100 µM. For the same molecule, the TGI (TK-10) was over 1.00E−4, the “Percent Growth” value (TK-10; Log10 Concentration −4.0) was 3% and the “Percent Growth” value (TK-10; Log10 Concentration −5.0) was 39%. For the same molecule, the “Percent Growth” value (TK-10; Log10 Concentration −6.0) was 75%, the “Percent Growth” value (TK-10; Log10 Concentration −7.0) was 113% and the “Percent Growth” value (TK-10; Log10 Concentration −8.0) was 95%. It also gave a GI50 (TK-10; read-out: GI50) of 4.88 µM.
